Laboratory results taken from PubChem BioAssay AID330 (DTP/NCI, 2004).
“And” between values parts separate entries of the source, which are not always exact repeats. Identical values can stand only once. Toxic doses and inconclusive results are not listed. How the source made its calls: active means survival T/C of 150% or more; inactive means T/C below 125% in these data. Peptide text beside a SMILES is read from it.

Test system: P388 leukemia ip, CD2F1 mice, survival T/C
Experiment: NCI In Vivo Anticancer Drug Screen. Data for tumor model P388 Leukemia (intraperitoneal) in CD2F1 (CDF1) mice
Conditions: endpoint: median survival time, higher = longer survival
Summary of the method: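 Mice carrying the transplanted tumor received test compound or vehicle. Survival was recorded in each group, and the value is the treated-group measurement divided by that of the vehicle-treated control group.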

[1] = dose: 12.5 mg/kg/injection, schedule: Q01DX005 (ip), vehicle: saline with Tween-80
[2] = dose: 25.0 mg/kg/injection, schedule: Q01DX005 (ip), vehicle: saline with Tween-80
[3] = dose: 50.0 mg/kg/injection, schedule: Q01DX005 (ip), vehicle: saline with Tween-80
[4] = dose: 60.0 mg/kg/injection, schedule: Q01DX005 (ip), vehicle: saline with Tween-80
[5] = dose: 50.0 mg/kg/injection, schedule: Q01DX009 (ip), vehicle: saline
[6] = dose: 100.0 mg/kg/injection, schedule: Q01DX009 (ip), vehicle: saline
[7] = dose: 200.0 mg/kg/injection, schedule: Q01DX009 (ip), vehicle: saline
[8] = dose: 50.0 mg/kg/injection, schedule: Q01DX005 (ip), vehicle: Klucel (hydroxypropylcellulose) (HPC)
[9] = dose: 100.0 mg/kg/injection, schedule: Q01DX005 (ip), vehicle: Klucel (hydroxypropylcellulose) (HPC)
[10] = dose: 200.0 mg/kg/injection, schedule: Q01DX005 (ip), vehicle: Klucel (hydroxypropylcellulose) (HPC)

Measured: T/C

O=C1C=CC2(CC=CCC2)CC1 (stereo not drawn)
inactive: dose: 6.25 mg/kg/injection, schedule: Q01DX009 (ip), vehicle: Klucel (hydroxypropylcellulose) (HPC) 110 % of control | dose: 12.5 mg/kg/injection, schedule: Q01DX008 (ip), vehicle: Klucel (hydroxypropylcellulose) (HPC) 101 % of control | dose: 12.5 mg/kg/injection, schedule: Q01DX009 (ip), vehicle: Klucel (hydroxypropylcellulose) (HPC) 108 % of control | dose: 25.0 mg/kg/injection, schedule: Q01DX008 (ip), vehicle: Klucel (hydroxypropylcellulose) (HPC) 100 % of control | dose: 25.0 mg/kg/injection, schedule: Q01DX009 (ip), vehicle: Klucel (hydroxypropylcellulose) (HPC) 100 % of control | dose: 50.0 mg/kg/injection, schedule: Q01DX009 (ip), vehicle: Klucel (hydroxypropylcellulose) (HPC) 121 % of control | dose: 100.0 mg/kg/injection, schedule: Q01DX009 (ip), vehicle: Klucel (hydroxypropylcellulose) (HPC) 109 % of control | dose: 200.0 mg/kg/injection, schedule: Q01DX009 (ip), vehicle: Klucel (hydroxypropylcellulose) (HPC) 110 % of control

CCOC(=O)c1c(-c2ccccc2)csc1NC(=O)CN1CCOCC1
inactive: [1] 98 % of control | [2] 90 % of control | [3] 86 % of control | dose: 200.0 mg/kg/injection, schedule: Q01DX005 (ip), vehicle: saline with Tween-80 88 % of control

COC(=O)/C=C(\C(=O)OC)c1ccccc1C(C(=O)OC)c1ccccc1CC(=O)OC (stereo not drawn)
inactive: dose: 50.0 mg/kg/injection, schedule: Q01DX009 (ip), vehicle: saline with Tween-80 108 % of control | dose: 100.0 mg/kg/injection, schedule: Q01DX009 (ip), vehicle: saline with Tween-80 106 % of control | dose: 200.0 mg/kg/injection, schedule: Q01DX009 (ip), vehicle: saline with Tween-80 108 % of control

COC(=O)c1ccccc1N=NN(C)CC1OC2OC(C)(C)OC2C1OC (stereo not drawn)
inactive: dose: 100.0 mg/kg/injection, schedule: Q01DX001 (ip), vehicle: saline with Tween-80 99 % of control | dose: 200.0 mg/kg/injection, schedule: Q01DX001 (ip), vehicle: saline with Tween-80 99 % of control | dose: 400.0 mg/kg/injection, schedule: Q01DX001 (ip), vehicle: saline with Tween-80 97 % of control

CS/C(=C\c1sc2ccccc2[n+]1C)SCC(=O)c1ccccc1
inactive: dose: 25.0 mg/kg/injection, schedule: Q04DX002 (ip), vehicle: saline with Tween-80 100 % of control | dose: 50.0 mg/kg/injection, schedule: Q04DX002 (ip), vehicle: saline with Tween-80 104 % of control | dose: 100.0 mg/kg/injection, schedule: Q04DX002 (ip), vehicle: saline with Tween-80 106 % of control

COC(=O)CC1(C(=O)OC)c2sc(-c3ccccc3OC)cc2N2CCCC21 (stereo not drawn)
inactive: dose: 0.63 mg/kg/injection, schedule: Q01DX009 (ip), vehicle: Klucel (hydroxypropylcellulose) (HPC) 106 % of control | dose: 1.25 mg/kg/injection, schedule: Q01DX009 (ip), vehicle: Klucel (hydroxypropylcellulose) (HPC) 102 % of control | dose: 2.5 mg/kg/injection, schedule: Q01DX009 (ip), vehicle: Klucel (hydroxypropylcellulose) (HPC) 102 % of control | dose: 5.0 mg/kg/injection, schedule: Q01DX009 (ip), vehicle: Klucel (hydroxypropylcellulose) (HPC) 100 % of control | dose: 10.0 mg/kg/injection, schedule: Q01DX009 (ip), vehicle: Klucel (hydroxypropylcellulose) (HPC) 105 % of control

Cc1ccc(S(=O)(=O)/C=C/C(=O)c2ccco2)cc1
inactive: dose: 100.0 mg/kg/injection, schedule: Q04DX002 (ip), vehicle: saline 108 % of control | dose: 200.0 mg/kg/injection, schedule: Q04DX002 (ip), vehicle: saline 112 % of control | dose: 400.0 mg/kg/injection, schedule: Q04DX002 (ip), vehicle: saline 100 % of control

OCc1ccc2ccc3ccc(CO)nc3c2n1
inactive: [1] 97 % of control | [2] 111 % of control | [3] 104 % of control and 109 % of control | dose: 100.0 mg/kg/injection, schedule: Q01DX005 (ip), vehicle: saline with Tween-80 113 % of control

Cc1nnc(N/N=C/c2ccccc2)n1/N=C\c1ccccc1
inactive: dose: 100.0 mg/kg/injection, schedule: Q04DX003 (ip), vehicle: Klucel (hydroxypropylcellulose) (HPC) 101 % of control | dose: 200.0 mg/kg/injection, schedule: Q04DX003 (ip), vehicle: Klucel (hydroxypropylcellulose) (HPC) 100 % of control | dose: 400.0 mg/kg/injection, schedule: Q04DX003 (ip), vehicle: Klucel (hydroxypropylcellulose) (HPC) 105 % of control

CSC1=Nc2cccnc2Nc2cscc21
inactive: dose: 15.0 mg/kg/injection, schedule: Q01DX005 (ip), vehicle: saline with Tween-80 102 % of control | dose: 30.0 mg/kg/injection, schedule: Q01DX005 (ip), vehicle: saline with Tween-80 98 % of control | [4] 112 % of control and 94 % of control

CCOC(=O)C1=C(Nc2ccc(F)cc2)C(=O)N(C(C)(C)C)C1
inactive: [4] 100 % of control | dose: 120.0 mg/kg/injection, schedule: Q01DX005 (ip), vehicle: saline with Tween-80 106 % of control | dose: 240.0 mg/kg/injection, schedule: Q01DX005 (ip), vehicle: saline with Tween-80 93 % of control

NC1CCCC1C(=O)O (stereo not drawn)
inactive: [5] 96 % of control | [6] 100 % of control | [7] 102 % of control

Cc1cnnc2c3ccccc3nn12
inactive: [8] 99 % of control | [9] 101 % of control | [10] 101 % of control

C=C1C(O)C2OC(=O)C(=C)C2C(OC(=O)/C(C)=C/C)CC2(C)OC2C2OC12 (stereo not drawn)
inactive: dose: 4.0 mg/kg/injection, schedule: Q01DX005 (ip), vehicle: Klucel (hydroxypropylcellulose) (HPC) 96 % of control | dose: 8.0 mg/kg/injection, schedule: Q01DX005 (ip), vehicle: Klucel (hydroxypropylcellulose) (HPC) 103 % of control | dose: 16.0 mg/kg/injection, schedule: Q01DX005 (ip), vehicle: Klucel (hydroxypropylcellulose) (HPC) 100 % of control | dose: 32.0 mg/kg/injection, schedule: Q01DX005 (ip), vehicle: Klucel (hydroxypropylcellulose) (HPC) 116 % of control | [8] 115 % of control | dose: 64.0 mg/kg/injection, schedule: Q01DX005 (ip), vehicle: Klucel (hydroxypropylcellulose) (HPC) 116 % of control | [9] 109 % of control | [10] 103 % of control

C[N+]1=Nc2cccc3cccc(c23)[N-]1
inactive: dose: 50.0 mg/kg/injection, schedule: Q01DX001 (ip), vehicle: Klucel (hydroxypropylcellulose) (HPC) 111 % of control | dose: 100.0 mg/kg/injection, schedule: Q01DX001 (ip), vehicle: Klucel (hydroxypropylcellulose) (HPC) 102 % of control | dose: 200.0 mg/kg/injection, schedule: Q01DX001 (ip), vehicle: Klucel (hydroxypropylcellulose) (HPC) 100 % of control

NC(N)=NCCCC(N)C(=O)NC(CCC(=O)O)C(=O)O (stereo not drawn) (H-Arg-Glu-OH; configuration not given here)
inactive: dose: 25.0 mg/kg/injection, schedule: Q01DX009 (ip), vehicle: saline 91 % of control | [8] 100 % of control | [5] 97 % of control | [9] 100 % of control | [6] 94 % of control | [10] 100 % of control | [7] 103 % of control | dose: 400.0 mg/kg/injection, schedule: Q01DX009 (ip), vehicle: saline 88 % of control

O=C1NC(c2cccc3ccccc23)Nc2ccc(O)cc21 (stereo not drawn)
inactive: dose: 8.75 mg/kg/injection, schedule: Q01DX005 (ip), vehicle: DMSO 102 % of control | dose: 17.5 mg/kg/injection, schedule: Q01DX005 (ip), vehicle: DMSO 100 % of control | dose: 35.0 mg/kg/injection, schedule: Q01DX005 (ip), vehicle: DMSO 102 % of control | dose: 70.0 mg/kg/injection, schedule: Q01DX005 (ip), vehicle: DMSO 98 % of control | dose: 140.0 mg/kg/injection, schedule: Q01DX005 (ip), vehicle: DMSO 100 % of control

Cc1ccc(Cc2ccc[nH]2)cc1
inactive: dose: 100.0 mg/kg/injection, schedule: Q04DX002 (ip), vehicle: distilled water + Tween-80 + alcohol 100 % of control | dose: 200.0 mg/kg/injection, schedule: Q04DX002 (ip), vehicle: distilled water + Tween-80 + alcohol 100 % of control | dose: 400.0 mg/kg/injection, schedule: Q04DX002 (ip), vehicle: distilled water + Tween-80 + alcohol 103 % of control

C1OC1CN1CCN(CC2CO2)CC1 (stereo not drawn)
inactive: dose: 4.0 mg/kg/injection, schedule: Q01DX009 (ip), vehicle: saline 124 % of control
active: dose: 8.0 mg/kg/injection, schedule: Q01DX009 (ip), vehicle: saline 150 % of control | dose: 16.0 mg/kg/injection, schedule: Q01DX009 (ip), vehicle: saline 196 % of control
